US9249152B2, “Cyano containing azabenzofuran compounds for the treatment of hepatitis C” (BRISTOL-MYERS SQUIBB COMPANY, priority 2014, dated 2016)
Read-outs that look alike come from different tables or passages of the source.

How the values were obtained:
[1] = tested on: genotype 1b (Con-1) HCV replicon; assay: HCV replicon luciferase assay, genotype 1b (Con-1); type: cell-based; conditions: genotype 1b HCV replicon, Huh-7 cells, Renilla luciferase, 3 days
Procedure: The cell lines used to evaluate compounds consist of a human hepatocyte derived cell line (Huh-7) that constitutively expresses a genotype 1b (Con-1) HCV replicon or a genotype 1b (Con-1) HCV replicon with an asparagine replacing the cysteine at amino acid 316, or a genotype 2a (JFH-1) replicon, containing a Renilla luciferase reporter gene. These cells were maintained in Dulbecco's modified Eagle medium (DMEM) containing 10% FBS, 100 U/mL penicillin/streptomycin and 1.0 mg/mL G418.
To evaluate compound efficacy, titrated compounds were transferred to sterile 384-well tissue culture treated plates, and the plates were seeded with HCV replicon cells (50 μL at a density of 2.4×10^3 cells/well) in DMEM containing 4% FBS (final DMSO concentration at 0.5%). After 3 days incubation at 37° C., cells were analyzed for Renilla Luciferase activity using the EnduRen substrate (Promega cat #E6485) according to the manufacturer's directions. Briefly, the EnduRen substrate was diluted in DMEM and then added to the plates to a final concentration of 7.5 μM. The plates were incubated for at least 1 h at 37° C. then read on a Viewlux Imager (PerkinElmer) using a luminescence program. The 50% effective concentration (EC50) was calculated using the four-parameter logistic formula noted above.

HCV = conditions: cited from earlier work
HCV replicon 1a = assay: HCV replicon luciferase assay, genotype 1a; type: cell-based; conditions: Hepatitis C virus
[2] = Hepatitis C virus, Huh-7, 72 h, read-out: EC50 1b (class)
[3] = Hepatitis C virus, Huh-7, 72 h, read-out: EC50 (uM) 1b

Compound	EC50 [1, 2]	also measured
CNC(=O)c1c(-c2ccc(F)cc2)oc2nc(Cl)c(-c3cccc(C(=O)NC4(C#N)CCCC4)c3)cc12 [Compound 10006]	< 0.1 µM	EC50 [1, 3]: 0.076 µM
CNC(=O)c1c(-c2ccc(F)cc2)oc2nc(NCC(F)(F)F)c(-c3cccc(C(=O)NC(C)C#N)c3)cc12 (stereo not drawn) [Compound 20004]	–	EC50 ([1]; read-out: EC50 1b (class)): < 0.1 µM
CNC(=O)c1c(-c2ccc(F)cc2)oc2nc(CCC(F)(F)F)c(-c3cccc(C(=O)NC(C)(C#N)C4CC4)c3)cc12 (stereo not drawn) [Compound 11007]	–	EC50 ([1]; read-out: EC50 1b (class)): < 0.1 µM; EC50 ([1]; read-out: EC50 (uM) 1b): 0.0027 µM
CNC(=O)c1c(-c2ccc(F)cc2)oc2nc(NCC(F)(F)C(F)(F)F)c(-c3cccc(C(=O)NC4(C#N)CCCC4)c3)cc12 [Compound 30003]	< 0.1 µM	–
CNC(=O)c1c(-c2ccc(F)cc2)oc2nc(NCC(F)(F)C(F)(F)F)c(-c3cccc(C(=O)NC(C)(C#N)C(C)C)c3)cc12 (stereo not drawn) [Compound 30002]	< 0.1 µM	EC50 [1, 3]: 0.0394 µM
CNC(=O)c1c(-c2ccc(F)cc2)oc2nc(NCC(F)(F)C(F)(F)F)c(-c3ccc(OC)c(C(=O)NC(C)(C#N)C(C)C)c3)cc12 (stereo not drawn) [Compound 31001]	< 0.1 µM	–
CNC(=O)c1c(-c2ccc(F)cc2)oc2nc(CCC(F)(F)F)c(-c3ccc(OC)c(C(=O)NC4(C#N)CCCC4)c3)cc12 [Compound 12003]	< 0.1 µM	–
CNC(=O)c1c(-c2ccc(F)cc2)oc2nc(NCC(F)(F)F)c(-c3ccc(OC)c(C(=O)NC(C)(C#N)C(C)C)c3)cc12 (stereo not drawn) [Compound K5004]	< 0.1 µM	EC50 [1, 3]: 0.0028 µM
CNC(=O)c1c(-c2ccc(F)cc2)oc2nc(NCC(F)(F)F)c(-c3ccc(F)c(C(=O)NC4(C#N)CCCC4)c3)cc12 [Compound K2004]	< 0.1 µM	–
CNC(=O)c1c(-c2ccc(F)cc2)oc2nc(NCC(F)(F)F)c(-c3ccc(F)c(C(=O)NC(C)C#N)c3)cc12 (stereo not drawn) [Compound 22003]	–	EC50 ([1]; read-out: EC50 1b (class)): < 0.1 µM
CNC(=O)c1c(-c2ccc(F)cc2)oc2nc(NCC(F)(F)F)c(-c3ccc(F)c(C(=O)NC(C)(C#N)C4CC4)c3)cc12 (stereo not drawn) [Compound 22004]	< 0.1 µM	EC50 [1, 3]: 0.004 µM
CNC(=O)c1c(-c2ccc(F)cc2)oc2nc(CCC(F)(F)F)c(-c3ccc(OC)c(C(=O)NC4(C#N)CC4)c3)cc12 [Compound K6001]	< 0.1 µM	–
CNC(=O)c1c(-c2ccc(F)cc2)oc2nc(Cl)c(-c3ccc(OC)c(C(=O)NC4(C#N)CCCC4)c3)cc12 [Compound 10003]	< 0.1 µM	–
CNC(=O)c1c(-c2ccc(F)cc2)oc2nc(CCC(F)(F)F)c(-c3ccc(F)c(C(=O)NC4(C#N)CC4)c3)cc12 [Compound K1001]	< 0.1 µM	EC50 [1, 3]: 0.0061 µM
CNC(=O)c1c(-c2ccc(F)cc2)oc2nc(CCC(F)(F)F)c(-c3cc(C(=O)NC(C)(C#N)C4CC4)ccc3F)cc12 (stereo not drawn) [Compound 15001]	< 0.1 µM	–
alpha-interferon and ribavirin	–	sustained efficacy, share of patients (HCV; patients): 40%
CNC(=O)c1c(-c2ccc(F)cc2)oc2nc(CCC(F)(F)F)c(-c3cccc(C(=O)NC4(C#N)CCCC4)c3)cc12 [Compound 11003]	< 0.1 µM	EC50 [1, 3]: 0.0046 µM
CNC(=O)c1c(-c2ccc(F)cc2)oc2cc(N(CCO)S(C)(=O)=O)c(C3CC3)cc12 [HCV-796]	–	hepatic toxicity (HCV; extended dosing of the combination regimens): hepatic toxicity observed during extended dosing of the combination regimens; HCV RNA levels in patients (HCV; patients, single agent or combined with interferon and ribavirin): reduce HCV RNA levels in patients
CNC(=O)c1c(-c2ccc(F)cc2)oc2nc(OCC(F)(F)F)c(-c3cccc(C(=O)NC(C)(C)C#N)c3)cc12 [Compound K9001, 5-(3-((2-cyanopropan-2-yl)carbamoyl)phenyl)-2-(4-fluorophenyl)-N-methyl-6-(2,2,2-trifluoroethoxy)furo[2,3-b]pyridine-3-carboxamide]	–	EC50 (HCV replicon 1a; read-out: EC50 for 1a instead): 17.7 nM; EC50 (HCV replicon 1a; read-out: EC50 for 1a instead (class)): < 100 nM
CNC(=O)c1c(-c2ccc(F)cc2)oc2nc(NCC(F)(F)F)c(-c3cnc(OC)c(C(=O)NC4(C#N)CC4)c3)cc12 [Compound K8003]	< 0.1 µM	–
CNC(=O)c1c(-c2ccc(F)cc2)oc2nc(CCC(F)(F)F)c(-c3cccc(C(=O)NC(C)(C#N)CF)c3)cc12 (stereo not drawn) [Compound 11012]	< 0.1 µM	–
CNC(=O)c1c(-c2ccc(F)cc2)oc2nc(CCC(F)(F)F)c(-c3ccc(F)c(C(=O)NC(C)C#N)c3)cc12 (stereo not drawn) [Compound 13003]	< 0.1 µM	–
CNC(=O)c1c(-c2ccc(F)cc2)oc2nc(CCC(F)(F)F)c(-c3ccc(OC)c(C(=O)NC4(C#N)CCC4)c3)cc12 [Compound 12002]	< 0.1 µM	–
CNC(=O)c1c(-c2ccc(F)cc2)oc2nc(CCC(F)(F)F)c(-c3cc(F)c(F)c(C(=O)NC(C)(C#N)C4CC4)c3)cc12 (stereo not drawn) [Compound 17001]	< 0.1 µM	EC50 [1, 3]: 0.0018 µM
CNC(=O)c1c(-c2ccc(F)cc2)oc2nc(NCCO)c(-c3cccc(C(=O)NC(C)(C)C#N)c3)cc12 [Compound 40001]	< 0.1 µM	–
CNC(=O)c1c(-c2ccc(F)cc2)oc2nc(CCC(F)(F)F)c(-c3cnc(OC)c(C(=O)NC(C)(C)C#N)c3)cc12 [Compound K7001]	< 0.1 µM	–
CNC(=O)c1c(-c2ccc(F)cc2)oc2nc(CCC(F)(F)F)c(-c3ccc(F)c(C(=O)NC(C)C#N)c3)cc12 (stereo not drawn) [Compound 13004]	–	EC50 ([1]; read-out: EC50 1b (class)): < 0.1 µM
CNC(=O)c1c(-c2ccc(F)cc2)oc2nc(CCC(F)(F)F)c(-c3cc(F)cc(C(=O)NC(C)(C#N)C4CC4)c3)cc12 (stereo not drawn) [Compound 14002]	< 0.1 µM	–
CNC(=O)c1c(-c2ccc(F)cc2)oc2nc(CCC(F)(F)F)c(-c3ccc(F)c(C(=O)NC4(C#N)CCC4)c3)cc12 [Compound K1002]	< 0.1 µM	–
